System: MV-4-11 cells
Test: Gene expression microarray analysis (Affymetrix PrimeView) and GSEA
Format: cell-based, human
Parameters: RFU PODN (11730768_x_at) / Fold change /veh PODN (11730768_x_at) / RFU LINC00158 (11744669_a_at) / Fold change /veh LINC00158 (11744669_a_at) / RFU DUSP10 (11751237_a_at) / Fold change /veh DUSP10 (11751237_a_at) / RFU ID3 (11757404_x_at) / Fold change /veh ID3 (11757404_x_at) / RFU PLEKHG5 (11737974_s_at) / Fold change /veh PLEKHG5 (11737974_s_at) / RFU LRRC4B (11730491_at) / Fold change /veh LRRC4B (11730491_at) / RFU GIMAP4 (11747438_a_at) / Fold change /veh GIMAP4 (11747438_a_at) / RFU KRT8 (11758183_x_at) / Fold change /veh KRT8 (11758183_x_at) / RFU CNN1 (11734310_a_at) / Fold change /veh CNN1 (11734310_a_at) / RFU VPS37D (11726825_at) / Fold change /veh VPS37D (11726825_at) / RFU C10orf10 (11716522_x_at) / Fold change /veh C10orf10 (11716522_x_at) / RFU KIR2DL2 /// KIR2DL4 /// KIR2DL5A /// KIR2DL5B /// KIR2DS1 /// KIR2DS2 /// KIR2DS3 /// KIR2DS4 /// KIR3DL3 /// KIR3DL3 /// KIR3DS1 (11738374_at) / Fold change /veh KIR2DL2 /// KIR2DL4 /// KIR2DL5A /// KIR2DL5B /// KIR2DS1 /// KIR2DS2 /// KIR2DS3 /// KIR2DS4 /// KIR3DL3 /// KIR3DL3 /// KIR3DS1 (11738374_at) / RFU C1QL1 (11718748_at) / Fold change /veh C1QL1 (11718748_at) / RFU TMPRSS4 (11747572_a_at) / Fold change /veh TMPRSS4 (11747572_a_at) / RFU HAMP (11756126_x_at) / Fold change /veh HAMP (11756126_x_at) / RFU RNFT2 (11725882_a_at) / Fold change /veh RNFT2 (11725882_a_at) / RFU NR4A2 (11747474_a_at) / Fold change /veh NR4A2 (11747474_a_at) / RFU ABCC12 (11746883_a_at) / Fold change /veh ABCC12 (11746883_a_at) / RFU TMEM136 (11760407_x_at) / Fold change /veh TMEM136 (11760407_x_at) / RFU CLDN22 /// WWC2 (11732394_at) / Fold change /veh CLDN22 /// WWC2 (11732394_at) / RFU HLA-DPB1 (11760878_x_at) / Fold change /veh HLA-DPB1 (11760878_x_at) / RFU SPINT1 (11716480_a_at) / Fold change /veh SPINT1 (11716480_a_at) / RFU GAP43 (11754022_s_at) / Fold change /veh GAP43 (11754022_s_at) / RFU A4GNT (11735810_at) / Fold change /veh A4GNT (11735810_at) / RFU PRB3 (11715151_x_at) / Fold change /veh PRB3 (11715151_x_at) / RFU TUBB4B (11761932_at) / Fold change /veh TUBB4B (11761932_at) / RFU CAPN14 (11732068_a_at) / Fold change /veh CAPN14 (11732068_a_at) / RFU TMCC2 (11721928_a_at) / Fold change /veh TMCC2 (11721928_a_at) / RFU IRGQ (11745062_a_at) / Fold change /veh IRGQ (11745062_a_at) / RFU FAM174B (11720279_a_at) / Fold change /veh FAM174B (11720279_a_at) / RFU TMPRSS4 (11748680_a_at) / Fold change /veh TMPRSS4 (11748680_a_at) / RFU FAM212B (11763350_a_at) / Fold change /veh FAM212B (11763350_a_at) / RFU PLEKHG5 (11743358_a_at) / Fold change /veh PLEKHG5 (11743358_a_at) / RFU ZSCAN30 (11745921_a_at) / Fold change /veh ZSCAN30 (11745921_a_at) / RFU CMKLR1 (11741424_a_at) / Fold change /veh CMKLR1 (11741424_a_at) / RFU LOC101060620 /// MAPK8IP1 (11723275_at) / Fold change /veh LOC101060620 /// MAPK8IP1 (11723275_at) / RFU SPTSSB (11747773_x_at) / Fold change /veh SPTSSB (11747773_x_at) / RFU PRSS12 (11739890_at) / Fold change /veh PRSS12 (11739890_at) / RFU BIN1 (11741810_x_at) / Fold change /veh BIN1 (11741810_x_at) / RFU WNT11 (11732464_a_at) / Fold change /veh WNT11 (11732464_a_at) / RFU C10orf10 (11716521_a_at) / Fold change /veh C10orf10 (11716521_a_at) / RFU C5orf56 (11738089_at) / Fold change /veh C5orf56 (11738089_at) / RFU CYB561 (11721691_x_at) / Fold change /veh CYB561 (11721691_x_at) / RFU ANKRD19P (11752326_a_at) / Fold change /veh ANKRD19P (11752326_a_at) / RFU OR2T12 /// OR2T33 /// OR2T8 (11738714_s_at) / Fold change /veh OR2T12 /// OR2T33 /// OR2T8 (11738714_s_at) / RFU VCAN (11748164_a_at) / Fold change /veh VCAN (11748164_a_at) / RFU JSRP1 (11732532_at) / Fold change /veh JSRP1 (11732532_at) / RFU KRTAP10-11 (11738290_x_at) / Fold change /veh KRTAP10-11 (11738290_x_at) / RFU MYO3A (11730013_a_at) / Fold change /veh MYO3A (11730013_a_at) / RFU EBF3 (11725865_a_at) / Fold change /veh EBF3 (11725865_a_at) / RFU CAMK2N1 (11719241_x_at) / Fold change /veh CAMK2N1 (11719241_x_at) / RFU C5orf56 (11738088_a_at) / Fold change /veh C5orf56 (11738088_a_at) / RFU OLFML3 (11715873_a_at) / Fold change /veh OLFML3 (11715873_a_at) / RFU LOC100653217 /// NTM (11731650_a_at) / Fold change /veh LOC100653217 /// NTM (11731650_a_at) / RFU MAPK11 (11762145_a_at) / Fold change /veh MAPK11 (11762145_a_at) / RFU FIZ1 (11724087_x_at) / Fold change /veh FIZ1 (11724087_x_at) / RFU OASL (11726364_x_at) / Fold change /veh OASL (11726364_x_at) / RFU SOX15 (11748057_x_at) / Fold change /veh SOX15 (11748057_x_at) / RFU CD79A (11719716_a_at) / Fold change /veh CD79A (11719716_a_at) / RFU HIST1H1D (11736915_at) / Fold change /veh HIST1H1D (11736915_at) / RFU CASKIN2 (11723855_a_at) / Fold change /veh CASKIN2 (11723855_a_at) / RFU LOC730098 (11760151_x_at) / Fold change /veh LOC730098 (11760151_x_at) / RFU OR4N2 (11742367_at) / Fold change /veh OR4N2 (11742367_at) / RFU PRRT2 (11749266_a_at) / Fold change /veh PRRT2 (11749266_a_at) / RFU SNX32 (11753110_a_at) / Fold change /veh SNX32 (11753110_a_at) / RFU CDHR5 (11726645_a_at) / Fold change /veh CDHR5 (11726645_a_at) / RFU RCAN1 (11760418_a_at) / Fold change /veh RCAN1 (11760418_a_at) / RFU FAM167A (11723789_a_at) / Fold change /veh FAM167A (11723789_a_at) / RFU FAM26E (11764081_at) / Fold change /veh FAM26E (11764081_at) / RFU ISYNA1 (11749810_s_at) / Fold change /veh ISYNA1 (11749810_s_at) / RFU ACY1 (11761880_at) / Fold change /veh ACY1 (11761880_at) / RFU 11764098_at / Fold change /veh 11764098_at / RFU SAMD14 (11745864_x_at) / Fold change /veh SAMD14 (11745864_x_at) / RFU NPB (11741838_a_at) / Fold change /veh NPB (11741838_a_at) / RFU TMPRSS6 (11731388_a_at) / Fold change /veh TMPRSS6 (11731388_a_at) / RFU KRTAP10-2 (11738614_at) / Fold change /veh KRTAP10-2 (11738614_at) / RFU ARHGAP8 /// PRR5-ARHGAP8 (11727945_x_at) / Fold change /veh ARHGAP8 /// PRR5-ARHGAP8 (11727945_x_at) / RFU KRTAP5-7 /// NADSYN1 (11734609_at) / Fold change /veh KRTAP5-7 /// NADSYN1 (11734609_at) / RFU RASL12 (11751679_a_at) / Fold change /veh RASL12 (11751679_a_at) / RFU CDKN2B (11736163_a_at) / Fold change /veh CDKN2B (11736163_a_at) / RFU PRF1 (11729649_at) / Fold change /veh PRF1 (11729649_at) / RFU, ZNF638 /// ZNF638-IT1 / Fold change vs veh, ZNF638 /// ZNF638-IT1 / RFU, PANK3 / Fold change vs veh, PANK3 / RFU, SH3YL1 / Fold change vs veh, SH3YL1 / RFU, ZEB2 / Fold change vs veh, ZEB2 / RFU, NRIP1 / Fold change vs veh, NRIP1 / RFU, PTTG1IP / Fold change vs veh, PTTG1IP / RFU, CAPN2 / Fold change vs veh, CAPN2 / RFU, MED14 / Fold change vs veh, MED14 / RFU, SNORA58 / Fold change vs veh, SNORA58 / RFU, C1orf63 / Fold change vs veh, C1orf63 / RFU, LRRFIP1 / Fold change vs veh, LRRFIP1 / RFU, NDUFAF7 / Fold change vs veh, NDUFAF7 / RFU, SLC12A2 / Fold change vs veh, SLC12A2 / RFU, IBTK / Fold change vs veh, IBTK / RFU, ESF1 / Fold change vs veh, ESF1 / Fold change vs veh, TMEM50B / RFU, TAOK1 / Fold change vs veh, TAOK1 / RFU, ACBD3 / Fold change vs veh, ACBD3 / RFU, TMA16 / Fold change vs veh, TMA16 / RFU, RWDD3 / Fold change vs veh, RWDD3 / RFU, BCAT1 / Fold change vs veh, BCAT1 / RFU, EDEM3 / Fold change vs veh, EDEM3 / RFU, TMEM33 / Fold change vs veh, TMEM33 / RFU, WDR75 / Fold change vs veh, WDR75 / RFU, AHCTF1 / Fold change vs veh, AHCTF1 / RFU, TFRC / Fold change vs veh, TFRC / RFU, ZDHHC17 / Fold change vs veh, ZDHHC17 / RFU, NOM1 / Fold change vs veh, NOM1 / RFU, ARL8B / Fold change vs veh, ARL8B / RFU, ZBTB11 / Fold change vs veh, ZBTB11 / RFU, TAMM41 / Fold change vs veh, TAMM41 / RFU, KIAA1704 /// LOC100996395 / Fold change vs veh, KIAA1704 /// LOC100996395 / RFU, ING1 / Fold change vs veh, ING1 / RFU, TRMT61B / Fold change vs veh, TRMT61B / RFU, FUBP3 / Fold change vs veh, FUBP3 / RFU, TP53 / Fold change vs veh, TP53 / RFU, TNKS2 / Fold change vs veh, TNKS2 / RFU, ZFP14 / Fold change vs veh, ZFP14 / RFU, ACTR2 / Fold change vs veh, ACTR2 / RFU, PPP3R1 / Fold change vs veh, PPP3R1 / RFU, PIK3R1 / Fold change vs veh, PIK3R1 / RFU, HNRNPA1 / Fold change vs veh, HNRNPA1 / RFU, RNF170 / Fold change vs veh, RNF170 / RFU, ZNF28 / Fold change vs veh, ZNF28 / RFU, RNGTT / Fold change vs veh, RNGTT / RFU, OGT / Fold change vs veh, OGT / RFU, BRD1 / Fold change vs veh, BRD1 / RFU, MARS / Fold change vs veh, MARS / RFU, ZNF655 / Fold change vs veh, ZNF655 / RFU, FAHD1 / Fold change vs veh, FAHD1 / RFU, BDP1 / Fold change vs veh, BDP1 / RFU, LRRCC1 / Fold change vs veh, LRRCC1 / RFU, ARID1A / Fold change vs veh, ARID1A / RFU, ZNF146 / Fold change vs veh, ZNF146 / RFU, ZNF330 / Fold change vs veh, ZNF330 / RFU, GPN3 / Fold change vs veh, GPN3 / RFU, C9orf123 / Fold change vs veh, C9orf123 / RFU, N4BP2L2 / Fold change vs veh, N4BP2L2 / RFU, ARFIP1 / Fold change vs veh, ARFIP1 / RFU, FAM179B / Fold change vs veh, FAM179B / RFU, BCL10 / Fold change vs veh, BCL10 / RFU, UHRF1BP1L / Fold change vs veh, UHRF1BP1L / RFU, BET1 / Fold change vs veh, BET1 / RFU, CNOT2 / Fold change vs veh, CNOT2 / RFU, ZNF268 / Fold change vs veh, ZNF268 / Fold change vs veh, ZNF507 / RFU, DGCR2 / Fold change vs veh, DGCR2 / RFU, WDSUB1 / Fold change vs veh, WDSUB1 / Fold change vs veh, HSP90B1 /// MIR3652 / RFU, ADSS / Fold change vs veh, ADSS / RFU, GK / Fold change vs veh, GK / RFU, ZNF148 / Fold change vs veh, ZNF148 / RFU, TAF9 / Fold change vs veh, TAF9 / RFU, SLC1A5 / Fold change vs veh, SLC1A5 / RFU, SLMO2 / Fold change vs veh, SLMO2 / RFU, ABCC4 / Fold change vs veh, ABCC4 / RFU, LOC101060439 /// RAP1B / Fold change vs veh, LOC101060439 /// RAP1B / RFU, RFX7 / Fold change vs veh, RFX7 / RFU, GTPBP10 / Fold change vs veh, GTPBP10 / RFU, CNEP1R1 / Fold change vs veh, CNEP1R1 / RFU, BIVM-ERCC5 /// ERCC5 / Fold change vs veh, BIVM-ERCC5 /// ERCC5 / RFU, ILF3 / Fold change vs veh, ILF3 / RFU 11762660_at / Fold change /veh 11762660_at / RFU VCAN (11757783_s_at) / Fold change /veh VCAN (11757783_s_at) / RFU DDX43 (11728927_at) / Fold change /veh DDX43 (11728927_at) / RFU KRT8 (11758188_x_at) / Fold change /veh KRT8 (11758188_x_at) / RFU NKD1 (11759106_at) / Fold change /veh NKD1 (11759106_at) / RFU SRD5A1 (11742802_a_at) / Fold change /veh SRD5A1 (11742802_a_at) / RFU TPSAB1 /// TPSB2 (11721975_s_at) / Fold change /veh TPSAB1 /// TPSB2 (11721975_s_at) / RFU GSTM3 (11746129_a_at) / Fold change /veh GSTM3 (11746129_a_at) / RFU IL23R (11737362_x_at) / Fold change /veh IL23R (11737362_x_at) / RFU TMEM51 (11727254_a_at) / Fold change /veh TMEM51 (11727254_a_at) / RFU PIWIL2 (11732686_x_at) / Fold change /veh PIWIL2 (11732686_x_at) / RFU ORM1 (11744905_x_at) / Fold change /veh ORM1 (11744905_x_at) / RFU CCDC152 (11743942_at) / Fold change /veh CCDC152 (11743942_at) / RFU ECM1 (11717891_a_at) / Fold change /veh ECM1 (11717891_a_at) / RFU IL23R (11748794_a_at) / Fold change /veh IL23R (11748794_a_at) / RFU TNFAIP8L3 (11732012_x_at) / Fold change /veh TNFAIP8L3 (11732012_x_at) / RFU MBOAT4 (11741988_at) / Fold change /veh MBOAT4 (11741988_at) / RFU 11764193_at / Fold change /veh 11764193_at / RFU TMEM53 (11763286_at) / Fold change /veh TMEM53 (11763286_at) / RFU MAGEB2 (11727129_at) / Fold change /veh MAGEB2 (11727129_at) / RFU TMEM200A (11744735_a_at) / Fold change /veh TMEM200A (11744735_a_at) / RFU CCDC152 (11751479_a_at) / Fold change /veh CCDC152 (11751479_a_at) / RFU FAM211A (11726209_a_at) / Fold change /veh FAM211A (11726209_a_at) / RFU RGS16 (11746705_a_at) / Fold change /veh RGS16 (11746705_a_at) / RFU VCAN (11755009_s_at) / Fold change /veh VCAN (11755009_s_at) / RFU RHOB (11743442_s_at) / Fold change /veh RHOB (11743442_s_at) / RFU RGS16 (11720943_a_at) / Fold change /veh RGS16 (11720943_a_at) / RFU RGS16 (11720944_at) / Fold change /veh RGS16 (11720944_at) / RFU, VPS4B / Fold change vs veh, VPS4B / RFU, CREB1 / Fold change vs veh, CREB1 / RFU, DNAJC13 / Fold change vs veh, DNAJC13 / RFU, GNAQ / Fold change vs veh, GNAQ / RFU, CDK5R1 / Fold change vs veh, CDK5R1 / RFU, ZRANB3 / Fold change vs veh, ZRANB3 / RFU, CUL4A / Fold change vs veh, CUL4A / RFU, CCNY / Fold change vs veh, CCNY / RFU, UFL1 / Fold change vs veh, UFL1 / RFU, COG3 / Fold change vs veh, COG3 / RFU, DIAPH2 / Fold change vs veh, DIAPH2 / RFU, SKA2 / Fold change vs veh, SKA2 / RFU, AFF3 / Fold change vs veh, AFF3 / RFU, LMF1 / Fold change vs veh, LMF1 / RFU, IPO11 / Fold change vs veh, IPO11 / RFU, DFFB / Fold change vs veh, DFFB / RFU, FOXP1 / Fold change vs veh, FOXP1 / RFU, CARD8 / Fold change vs veh, CARD8 / RFU, STRN3 / Fold change vs veh, STRN3 / RFU, ADK / Fold change vs veh, ADK / RFU, RASSF2 / Fold change vs veh, RASSF2 / RFU, WIPF1 / Fold change vs veh, WIPF1 / RFU, LARP1B / Fold change vs veh, LARP1B / RFU, RASA1 / Fold change vs veh, RASA1 / RFU, RB1 / Fold change vs veh, RB1 / RFU, PPFIA1 / Fold change vs veh, PPFIA1 / RFU, MAT2A / Fold change vs veh, MAT2A / RFU, CCT5 / Fold change vs veh, CCT5 / RFU, WDR92 / Fold change vs veh, WDR92 / RFU, CUX1 / Fold change vs veh, CUX1 / RFU, TTC7A / Fold change vs veh, TTC7A / RFU, TMEM135 / Fold change vs veh, TMEM135 / RFU, DEPTOR / Fold change vs veh, DEPTOR / RFU, CPM / Fold change vs veh, CPM / RFU, DNAJB6 / Fold change vs veh, DNAJB6 / RFU, CACNA2D3 / Fold change vs veh, CACNA2D3 / RFU, DTX4 / Fold change vs veh, DTX4 / RFU, TFCP2 / Fold change vs veh, TFCP2 / RFU, GMCL1 /// GMCL1P1 / Fold change vs veh, GMCL1 /// GMCL1P1 / RFU, AEBP2 / Fold change vs veh, AEBP2 / RFU, SNHG1 /// SNORD22 /// SNORD25 /// SNORD26 /// SNORD27 /// SNORD28 /// SNORD29 /// SNORD31 / Fold change vs veh, SNHG1 /// SNORD22 /// SNORD25 /// SNORD26 /// SNORD27 /// SNORD28 /// SNORD29 /// SNORD31 / Fold change (Aza/veh), C12orf56 (ProbeSet 11735607_a_at) / Fold change (ACY-1035/veh), C12orf56 (ProbeSet 11735607_a_at) / Fold change (Aza/veh), FGFR1OP (ProbeSet 11751329_s_at) / Fold change (ACY-1035/veh), FGFR1OP (ProbeSet 11751329_s_at) / Fold change (Aza/veh), VPS36 (ProbeSet 11739960_a_at) / Fold change (ACY-1035/veh), VPS36 (ProbeSet 11739960_a_at) / RFU SYPL1 (11715823_x_at) / Fold change /veh SYPL1 (11715823_x_at) / RFU IGFBP7 (11715501_s_at) / Fold change /veh IGFBP7 (11715501_s_at) / RFU REEP3 (11722064_at) / Fold change /veh REEP3 (11722064_at) / RFU IGLL1 (11728026_x_at) / Fold change /veh IGLL1 (11728026_x_at): dose or concentration left out as unconfirmed
Settings: ProbeSet 11717914_a_at; LIST B

## Nc1ncn([C@@H]2O[C@H](CO)[C@@H](O)[C@H]2O)c(=O)n1 [azacitidine]
  Fold change vs veh, BIVM-ERCC5 /// ERCC5: 0.92
